The structures appear in SMILES notation. Where a name gives a salt, the structure may show the parent alone. Read-outs that look alike come from different tables or passages of the source.

Format in all cases: biochemical
The target of one experiment is T1, ERK8 (Homo sapiens, UniProt Q8TD08).
T1 construct: All protein kinases were of human origin and encoded full length proteins, unless indicated otherwise; His6; made in house; host or cells: insect Sf21 cells
T1 sequence (Q8TD08 1-544): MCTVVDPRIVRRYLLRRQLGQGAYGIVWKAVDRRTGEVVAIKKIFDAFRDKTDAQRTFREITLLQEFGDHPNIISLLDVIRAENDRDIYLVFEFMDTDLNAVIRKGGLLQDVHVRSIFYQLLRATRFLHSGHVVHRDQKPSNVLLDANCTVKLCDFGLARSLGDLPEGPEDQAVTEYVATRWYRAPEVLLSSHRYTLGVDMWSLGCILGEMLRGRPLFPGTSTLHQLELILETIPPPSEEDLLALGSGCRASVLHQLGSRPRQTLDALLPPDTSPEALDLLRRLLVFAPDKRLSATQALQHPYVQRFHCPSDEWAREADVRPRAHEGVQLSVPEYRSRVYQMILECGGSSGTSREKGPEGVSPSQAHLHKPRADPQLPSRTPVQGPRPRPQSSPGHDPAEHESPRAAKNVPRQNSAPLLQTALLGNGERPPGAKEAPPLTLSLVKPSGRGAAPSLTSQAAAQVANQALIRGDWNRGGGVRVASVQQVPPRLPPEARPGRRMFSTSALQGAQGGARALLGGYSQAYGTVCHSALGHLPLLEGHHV
The experiment is described as follows: ERK8 protein kinase assay. Conditions: for remaining activity at 1 µM: 1 μM compound; for remaining activity at 10 µM: 10 μM compound; for residual kinase activity ERK8: 1 μm compound. An excerpt: (§1) All protein kinases were of human origin and encoded full length proteins, unless indicated otherwise. They were either expressed as glutathione S-transferase (GST) fusion proteins in Escherichia Coli or as hexahistidine (His6)-tagged proteins in insect Sf21 cells. GST fusion proteins were purified by affinity chromatography on glutathione-Sepharose, and His6-tagged proteins on nickel/nitriloacetate-agarose. The procedures for expressing some of the protein kinases used herein have been detailed previously.^8,9 The following sections outline the DNA vectors synthesised and the procedures used to express and purifying protein kinases that have not been reported previously.
The following kinases were expressed in Sf21 cells: Aurora B and Aurora C, extra-cellular signal-regulated kinase 8 (ERK8), microtubule affinity regulating kinase 3 (MARK3), protein kinase Bα[118-480][S473D], protein kinase Bβ (PKBβ[120-481][S474D], 3-phosphoinositide-dependent protein kinase-1 [52-556]
(§2) All assays (25.5 μl) were carried out at room temperature (21° C.) and were linear with respect to time and enzyme concentration under the conditions used. Assays were performed for 30 min using Multidrop Micro reagent dispensers (Thermo Electron Corporation, Waltham, Mass. 02454, USA) in a 96-well format. The concentration of magnesium acetate in the assays was 10 mM and the [γ-33P] ATP (800 cpm/pmol) was used at 5, 20 or 50 μM as indicated, in order to be at or below the Km for ATP for each enzyme. Protein kinases assayed at 5 μM ATP were: —ERK1, ERK8, PKBα, MARK3, Aurora C. Protein kinases assayed at 20 μM ATP were: —JNK1, PDK1, CHK1, CHK2, CDK2 and Aurora B. Protein kinases assayed at 50 μM ATP were: —MNK2, IKKepsilon and TBK1.
(§3) The assays were initiated with MgATP, stopped by addition of 5 μl of 0.5 M orthophosphoric acid and spotted on to P81 filterplates using a unifilter harvester (PerkinElmer, Boston, Mass. 02118, USA). The IC50 values of inhibitors were determined after carrying out assays at 10 different concentrations of each compound.
ERK1 and ERK8 were both assayed against myelin basic protein (MBP, 0.33 mg/ml). MARK3 was assayed against the peptide […] (300 μM), MNK2 against the eIF4E protein (0.5 mg/ml). PKBβ was assayed against the peptide […] (30 μM). TBK1 were assayed against ([…]) (300 μM). The substrates used for other protein kinases were described previously.^8,9
(§4) Unless stated otherwise, enzymes were diluted in 50 mM Tris/HCl pH 7.5, 0.1 mM EGTA, 1 mg/ml BSA, 0.1% (v/v) 2-mercaptoethanol and assayed in 50 mM Tris/HCl pH 7.5, 0.1 mM EGTA, 0.1% (v/v) 2-mercaptoethanol.

The next experiment addresses T2, p38a MAPK (Homo sapiens, UniProt Q16539).
T2 construct: All protein kinases were of human origin and encoded full length proteins, unless indicated otherwise; made in house
The experiment is described as follows: p38a MAPK protein kinase assay. As to conditions: for remaining activity at 1 µM: 1 μM compound; for remaining activity at 10 µM: 10 μM compound; for residual kinase activity p38a MAPK: 1 μm compound.
Description: as §1, §2, §3, §4

The next experiment addresses T3, PRK2 (Homo sapiens, UniProt Q16513).
T3 construct: All protein kinases were of human origin and encoded full length proteins, unless indicated otherwise; made in house
The experiment is described as follows: PRK2 protein kinase assay. Conditions: for remaining activity at 1 µM: 1 μM compound; for remaining activity at 10 µM: 10 μM compound; for residual kinase activity PRK2: 1 μm compound.
Description: as §1, §2, §3, §4

A further experiment addresses T4, PAK5 (Homo sapiens, UniProt Q9P286).
T4 construct: All protein kinases were of human origin and encoded full length proteins, unless indicated otherwise; made in house
Description: PAK5 protein kinase assay. As to conditions: for remaining activity at 1 µM: 1 μM compound; for remaining activity at 10 µM: 10 μM compound; for residual kinase activity PAK5: 1 μm compound.
Description: as §1, §2, §3, §4

The next experiment addresses T5, MST2 (Homo sapiens, UniProt Q13188).
T5 construct: All protein kinases were of human origin and encoded full length proteins, unless indicated otherwise; made in house
T5 sequence (Q13188 1-491): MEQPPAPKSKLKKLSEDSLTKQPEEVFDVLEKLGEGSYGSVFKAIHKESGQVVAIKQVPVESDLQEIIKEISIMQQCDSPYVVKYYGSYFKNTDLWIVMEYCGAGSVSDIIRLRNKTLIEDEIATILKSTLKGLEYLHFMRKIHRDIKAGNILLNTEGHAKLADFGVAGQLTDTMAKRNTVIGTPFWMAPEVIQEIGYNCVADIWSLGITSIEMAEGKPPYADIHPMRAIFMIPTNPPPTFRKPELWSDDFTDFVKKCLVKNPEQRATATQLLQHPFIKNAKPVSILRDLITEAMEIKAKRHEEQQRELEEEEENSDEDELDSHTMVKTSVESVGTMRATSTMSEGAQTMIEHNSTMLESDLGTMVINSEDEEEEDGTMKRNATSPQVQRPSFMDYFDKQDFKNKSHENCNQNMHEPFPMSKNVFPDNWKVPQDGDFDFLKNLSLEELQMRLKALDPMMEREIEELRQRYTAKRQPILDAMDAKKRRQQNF
Description: MST2 protein kinase assay. Conditions: for remaining activity at 1 µM: 1 μM compound; for remaining activity at 10 µM: 10 μM compound; for residual kinase activity MST2: 1 μm compound.
Description: as §1, §2, §3, §4

The mark [1] stands for this setting: ERK8, 5 μM ATP, read-out: residual kinase activity.
Where [2] appears, read: p38a MAPK, read-out: residual kinase activity.
[3] abbreviates: PRK2, read-out: residual kinase activity.
The mark [4] stands for this setting: PAK5, read-out: residual kinase activity.
The mark [5] stands for this setting: MST2, read-out: residual kinase activity.
Where [6] appears, read: read-out: residual kinase activity ERK8.
[7] abbreviates: read-out: residual kinase activity p38a MAPK.
The mark [8] stands for this setting: read-out: residual kinase activity PRK2.
Setting [9] is: read-out: residual kinase activity PAK5.
Where [10] appears, read: read-out: residual kinase activity MST2.

T2 sequence (Q16539 whole entry): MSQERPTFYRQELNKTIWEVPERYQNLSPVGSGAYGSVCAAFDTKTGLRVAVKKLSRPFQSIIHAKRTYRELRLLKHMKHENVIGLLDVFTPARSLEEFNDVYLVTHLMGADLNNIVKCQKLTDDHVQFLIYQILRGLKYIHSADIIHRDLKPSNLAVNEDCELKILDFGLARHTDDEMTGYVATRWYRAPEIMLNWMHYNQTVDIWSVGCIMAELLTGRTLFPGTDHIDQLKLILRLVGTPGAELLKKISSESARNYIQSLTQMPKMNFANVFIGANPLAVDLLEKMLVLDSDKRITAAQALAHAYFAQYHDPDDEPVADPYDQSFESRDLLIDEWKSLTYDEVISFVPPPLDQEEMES
T3 sequence (Q16513 501-984 limits assumed): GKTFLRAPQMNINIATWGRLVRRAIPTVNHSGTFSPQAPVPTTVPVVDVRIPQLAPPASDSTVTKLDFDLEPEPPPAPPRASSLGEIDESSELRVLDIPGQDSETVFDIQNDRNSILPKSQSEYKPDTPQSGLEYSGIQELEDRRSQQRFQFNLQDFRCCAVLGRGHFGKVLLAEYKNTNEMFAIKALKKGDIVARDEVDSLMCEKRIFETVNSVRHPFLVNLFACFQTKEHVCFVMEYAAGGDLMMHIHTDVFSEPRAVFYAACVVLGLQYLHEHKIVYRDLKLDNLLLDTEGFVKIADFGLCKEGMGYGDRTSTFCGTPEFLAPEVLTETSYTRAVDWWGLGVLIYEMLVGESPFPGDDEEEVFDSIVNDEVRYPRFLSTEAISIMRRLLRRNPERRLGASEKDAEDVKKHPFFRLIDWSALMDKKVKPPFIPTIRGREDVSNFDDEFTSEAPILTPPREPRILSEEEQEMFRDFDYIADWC
T4 sequence (Q9P286 425-719 limits assumed): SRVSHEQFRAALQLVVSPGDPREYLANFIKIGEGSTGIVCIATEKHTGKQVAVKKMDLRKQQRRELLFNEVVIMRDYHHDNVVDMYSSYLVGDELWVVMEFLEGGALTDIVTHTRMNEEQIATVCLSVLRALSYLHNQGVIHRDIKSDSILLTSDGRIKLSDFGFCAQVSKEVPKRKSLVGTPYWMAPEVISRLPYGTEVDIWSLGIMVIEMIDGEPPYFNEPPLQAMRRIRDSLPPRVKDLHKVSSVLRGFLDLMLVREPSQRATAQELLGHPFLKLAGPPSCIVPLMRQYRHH

With `O=C(NCCCNc1nc(Nc2cccnc2)ncc1C1CC1)c1cccs1` [Example 50, Thiophene-2-carboxylic acid {3-[5-cyclopropyl-2-(pyridin-3-ylamino)-pyrimidin-4-ylamino]-propyl}-amide], the remaining activity at 1 µM amounted to 13% on ERK8 (setting [1]); 106% on p38a MAPK (setting [2]); 68% at PRK2 (setting [3]); 73% on PAK5 (setting [4]); 73% on MST2 (setting [5]). In addition, the remaining activity at 10 µM amounted to 5% on ERK8 (setting [1]); 90% on p38a MAPK (setting [2]); 58% on PRK2 (setting [3]); 47% at PAK5 (setting [4]); 33% at MST2 (setting [5]).
On to `O=C(NCCCNc1nc(Nc2cccc(F)c2)ncc1Br)C1CCC1` [Compound A, cyclobutanecarboxylic acid {3-[5-bromo-2-(3-fluoro-phenylamino)-pyrimidin-4-ylamino]-propyl}-amide, reference compound], for which the remaining activity at 10 µM at ERK8 (setting [6]) was 3%; at p38a MAPK (setting [7]), 78%; at PRK2 (setting [8]), 4%; at PAK5 (setting [9]), 14%; on MST2 (setting [10]) it was 6%. At ERK8, the “residual kinase activity ERK8” value turned out to be 9%. At p38a MAPK, the “residual kinase activity p38a MAPK” value is 99%. The “residual kinase activity PRK2” value on PRK2 came to 24%. Moreover, the “residual kinase activity PAK5” value on PAK5 is recorded as 46%. For the same compound, on MST2, the “residual kinase activity MST2” value came to 29%.
Turning to `O=C(NCCCNc1nc(Nc2cccc(F)c2)ncc1C1CC1)C1CCC1` [Example 23, Cyclobutanecarboxylic acid {3-[5-cyclopropyl-2-(3-fluoro-phenylamino)-pyrimidin-4-ylamino]-propyl}-amide], the remaining activity at 10 µM at ERK8 (setting [6]) turned out to be 6%; at ERK8 (setting [1]) it was 6%; on p38a MAPK (setting [7]), 86%; at p38a MAPK (setting [2]), 86%; on PRK2 (setting [8]) it was 60%; at PRK2 (setting [3]) it was 60%. Further, the remaining activity at 10 µM came to 56% at PAK5 (setting [9]), 56% on PAK5 (setting [4]), 33% on MST2 (setting [10]) and 33% at MST2 (setting [5]). In addition, the “residual kinase activity ERK8” value at ERK8 is recorded as 14%. For the same compound, the remaining activity at 1 µM at ERK8 (setting [1]) came to 14%; on p38a MAPK (setting [2]), 72%; at PRK2 (setting [3]), 67%; at PAK5 (setting [4]), 74%; on MST2 (setting [5]), 73%. Also, on p38a MAPK, the “residual kinase activity p38a MAPK” value is recorded as 72%. At PRK2, the “residual kinase activity PRK2” value amounted to 67%. Moreover, the “residual kinase activity PAK5” value at PAK5 worked out at 74%. In addition, the “residual kinase activity MST2” value at MST2 came out at 73%.
Take `O=C(NCCCNc1nc(Nc2cccc(N3CCCC3=O)c2)ncc1C1CC1)c1cccs1` [Example 47, Thiophene-2-carboxylic acid (3-{5-cyclopropyl-2-[3-(2-oxo-pyrrolidin-1-yl)-phenylamino]-pyrimidin-4-ylamino}-propyl)-amide. Hydrochloride salt]: the remaining activity at 1 µM on ERK8 (setting [1]) amounted to 33%; at p38a MAPK (setting [2]), 105%; at PRK2 (setting [3]), 76%; at PAK5 (setting [4]), 69%; on MST2 (setting [5]) it was 84%. Further, the remaining activity at 10 µM at ERK8 (setting [1]) came to 10%; at p38a MAPK (setting [2]), 100%; on PRK2 (setting [3]), 68%; on PAK5 (setting [4]), 68%; on MST2 (setting [5]), 70%.

These data come from patent US20100056524A1, “Compound” (priority 2008, published 2010).
